In patent US10899790B2, “Method for modifying T cell population” (OSAKA UNIVERSITY, priority 2016, dated 2021):
Entries after “also recorded” stand apart in the source; their conditions may differ.

Tests used:
[1] = biological target: T1, Retinol Dehydrogenase 10 (RDH10) (Homo sapiens, UniProt Q8IZV5); test: Inhibition of RDH10 enzyme activity (microsomal fraction of RDH10-expressed 293T, all-trans retinol to all-trans retinal, HPLC); assay type: biochemical; details: final concentration of 20 μM; relative to DMSO control (FIG. 1)
T1 construct: expressed in transfected cells; host or cells: 293T (microsomal fraction)
T1 sequence (Q8IZV5 1-341): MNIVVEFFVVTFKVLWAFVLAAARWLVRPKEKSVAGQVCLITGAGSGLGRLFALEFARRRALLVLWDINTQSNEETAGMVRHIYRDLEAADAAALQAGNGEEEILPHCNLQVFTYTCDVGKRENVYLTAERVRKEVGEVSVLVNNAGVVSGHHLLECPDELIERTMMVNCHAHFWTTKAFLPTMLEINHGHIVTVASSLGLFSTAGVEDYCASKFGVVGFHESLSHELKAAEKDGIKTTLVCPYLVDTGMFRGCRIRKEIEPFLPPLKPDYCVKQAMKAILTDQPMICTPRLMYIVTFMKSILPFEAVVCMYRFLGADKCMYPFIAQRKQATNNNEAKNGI
Procedure: All-trans retinol, BSA, and NAD (nicotinamide adenine dinucleotide) as a coenzyme were added to a buffer for reaction (90 mM potassium phosphate buffer, pH7.4, 40 mM KCl) so as to have final concentrations of 10 μM, 10 μM, and 1 mM respectively. This mixture was taken in siliconized tubes by 200 μl for each, the microsomal fractions separated from 293T and RDH10-expressed 293T were added to separate tubes by 10 μl for each, and the mixtures were allowed to react at 37° C. for 15 minutes. After 200 μl of methanol was added to the reaction mixtures to stop the reaction, retinoid was extracted using hexane and concentrated. The concentrated retinoid was dissolved in 150 μl of acetonitrile, separated by HPLC, and subjected to the detection of ultraviolet light absorption at a wavelength of 350 nm, whereby the substrate (all-trans retinol) and the product (all-trans retinal) were detected. In addition, standard samples (all-trans retinol and all-trans retinal) were separated by HPLC and the retention times of the respective standard samples were determined in advance. The solvent for HPLC was acetonitrile: 50 mM ammonium acetate=75:25. As the separation column, Syhergi 4 μm Hydro-RP 80A (manufactured by Phenomenex) was used. In addition, the flow rate was 2.0 ml/min. The RDH10 enzyme activity was calculated by reading the amount of product per fixed time from the chart of HPLC.
All-trans retinol, BSA, and NAD (nicotinamide adenine dinucleotide) as a coenzyme were added to a buffer for reaction (90 mM potassium phosphate buffer, pH7.4, 40 mM KCl) so as to have final concentrations of 10 μM, 10 μM, and 1 mM respectively. This mixture was taken in siliconized tubes by 200 μl for each, the microsomal fraction separated from RDH10-expressed 293T was added to separate tubes by 10 μl for each. The RDH10 inhibitor dissolved in DMSO was added to each tube so as to have a final concentration of 20 μM, and the same amount of DMSO was added to the control tube. The mixture was allowed to react at 37° C. for 15 to 30 minutes, 200 μl of methanol was added to the reaction mixtures, and then retinoid was extracted using hexane and concentrated. The concentrated retinoid was dissolved in 150 μl of acetonitrile, separated by HPLC, and subjected to the detection of ultraviolet light absorption at a wavelength of 350 nm, whereby the substrate (all-trans retinol) and the product (all-trans retinal) were detected. In addition, standard samples (all-trans retinol and all-trans retinal) were separated by HPLC and the retention times of the respective standard samples were determined in advance. The solvent for HPLC was acetonitrile: 50 mM ammonium acetate=75:25. As the separation column, Syhergi 4 μm Hydro-RP 80A (manufactured by Phenomenex) was used. The flow rate was 2.0 ml/min.
The enzyme activity was determined by the waveform area of the product (all-trans retinal) with respective to the waveform area of the non-reacted substrate (all-trans retinol), and the relative value with respect to the enzyme activity in the control is illustrated in FIG. 1. The error bars indicate SD (standard deviation).

[2] = system: mouse cancer cell line EG7 expressing OVA; test: Effect in vivo: EG7 tumor-bearing B6 mice with transferred OT-1 cells; parameters: species or system C57BL/6J mouse
From the text: A mouse cancer cell line EG7 (2×10^6) expressing OVA (chicken ovalbumin) was subcutaneously injected into C57BL/6J mouse (B6 mouse) to form a tumor. Five days later, the mouse in which a tumor was formed was irradiated with radiation at 3 Gy, then T cell-receptive OTCD8^+T cells (OT-1 cells) specific for OVA antigen were isolated from CD45.1 positive OT-I transgenic mouse, and this was transferred into the mouse by 2×10^5 through the tail vein. A total of 3 times every other day from the next day, RDH10 inhibitors (Compound No. 1 (RDHI-012) and Compound No. 2 (RDHI-013)) were administered to the mouse at 100 μg/mouse for each through the tail vein. The RDH10 inhibitors were administered to the mouse by being previously stocked in DMSO at 100 μg/50 μl and adjusted to have a total volume of 200 μl by the addition of 150 μl of PBS.
In the experiment, tumor volumes were measured over time. The frequency of OT-1 cells (OVA specific CD8^+T cells) in peripheral blood on the 20th day was measured. Furthermore, the expression intensity of cell surface antigen molecules (CD62L, CD127), which were markers of memory T cells, was analyzed.
The time course in the mean value of tumor volume after tumor transplantation is illustrated in FIG. 4. The error bars indicate the standard error. The tumor volume was determined by major axis×minor axis×height/2.
On the 20th day after the tumor transplantation, the frequency of transferred OT-I cells contained in peripheral blood was analyzed by flow cytometry. OT-I cells were CD45.1 positive and thus were clearly distinguishable from the host B6 mouse (CD45.2 positive)-derived T cells. The representative results are illustrated in FIG. 5.
The expression intensities of CD62L and CD127 in OT-I cells illustrated in FIG. 5 were analyzed by flow cytometry. The mean value and standard error of each expression intensity are illustrated in FIG. 6.

Q: `COC(=O)[C@@]1(C)CC[C@]2(C)CC[C@]3(C)C(=CC(=O)[C@@H]4[C@@]5(C)CCC(N)C(C)(C)[C@@H]5CC[C@]43C)[C@H]2C1` (stereo partly drawn) [Compound No. 1, (2S,4aS,6aS,6bR,8aR,12aS,12bR,14bS)-methyl 10-amino-2,4a,6a,6b,9,9,12a-heptamethyl-13-oxo-1,2,3,4,4a,5,6,6a,6b,7,8,8a,9,10,11,12,12a,12b,13,14b-icosahydropicene-2-carboxylate] was tested. Which “RDH10 enzyme activity inhibitory action” value [1] did it give?
A: relatively potent; also recorded: potent RDH10 enzyme activity inhibitory action

Q: What about the “frequency of CD45.1+OT-1 cells (OVA specific CD8+ cells) in peripheral blood” value ([2]; 100 μg/mouse tail vein, 20th day after tumor transplantation (FIG. 5)) of the same molecule?
A: amplify CD45.1^+OT-1 cells

Q: What about the “expression of CD62L and CD127 in CD45.1+OT-1 cells” value ([2]; 100 μg/mouse tail vein, 20th day, flow cytometry (FIG. 6)) of the same molecule?
A: accelerate the expression of CD62L and CD127

Q: What about the “proliferation of tumor in vivo” value ([2]; 100 μg/mouse through the tail vein, 3 times every other day) of the same molecule?
A: suppress the proliferation of tumor in vivo

Q: What about the tumor volume ([2]; 100 μg/mouse through the tail vein, 3 times every other day, 21st day after transplantation (FIG. 4)) of the same molecule?
A: decreased to one several tenths to one several hundredths
